PubChem BioAssay (NCI)
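Growth conditions: 96-well plates. Treatment: test compound, 48 hours, 5 concentrations. Analysis: linear interpolation between bracketing concentrations; unreached endpoints set to highest concentration. TGI denotes the concentration required for complete inhibition of growth.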

Tests used:
Assay in all cases: growth of human tumour cells (NCI), 48 h
NCI-H226 lung = test system: NCI-H226 lung
SK-MEL-2 melanoma = test system: SK-MEL-2 melanoma
HT29 colon = test system: HT29 colon
KM12 colon = test system: KM12 colon
SN12C renal = test system: SN12C renal
SK-MEL-5 melanoma = test system: SK-MEL-5 melanoma
XF 498 CNS = test system: XF 498 CNS
NCI-H23 lung = test system: NCI-H23 lung
U251 CNS = test system: U251 CNS
OVCAR-8 ovarian = test system: OVCAR-8 ovarian
RXF 393 renal = test system: RXF 393 renal
HCT-15 colon = test system: HCT-15 colon
SNB-78 CNS = test system: SNB-78 CNS
SR leukemia = test system: SR leukemia
HOP-92 NSCLC = test system: HOP-92 NSCLC
DMS 273 small cell lung = test system: DMS 273 small cell lung
KM20L2 colon = test system: KM20L2 colon
M14 melanoma = test system: M14 melanoma
RXF-631 renal = test system: RXF-631 renal
HOP-18 NSCLC = test system: HOP-18 NSCLC
SF-268 CNS = test system: SF-268 CNS
SF-539 CNS = test system: SF-539 CNS
A498 renal = test system: A498 renal
K-562 leukemia = test system: K-562 leukemia
HCC-2998 colon = test system: HCC-2998 colon
LOX IMVI melanoma = test system: LOX IMVI melanoma
CCRF-CEM leukemia = test system: CCRF-CEM leukemia
OVCAR-3 ovarian = test system: OVCAR-3 ovarian
A549 NSCLC = test system: A549 NSCLC
ACHN renal = test system: ACHN renal
COLO 205 colon = test system: COLO 205 colon
OVCAR-4 ovarian = test system: OVCAR-4 ovarian
LXFL 529 NSCLC = test system: LXFL 529 NSCLC
TK-10 renal = test system: TK-10 renal
SK-OV-3 ovarian = test system: SK-OV-3 ovarian
EKVX NSCLC = test system: EKVX NSCLC
HOP-62 NSCLC = test system: HOP-62 NSCLC
UACC-62 melanoma = test system: UACC-62 melanoma
M19-MEL melanoma = test system: M19-MEL melanoma
DLD-1 colon = test system: DLD-1 colon
IGROV1 ovarian = test system: IGROV1 ovarian
RPMI-8226 leukemia = test system: RPMI-8226 leukemia
NCI-H460 lung = test system: NCI-H460 lung
SNB-19 CNS = test system: SNB-19 CNS
DMS 114 small cell lung = test system: DMS 114 small cell lung
OVCAR-5 ovarian = test system: OVCAR-5 ovarian
UACC-257 melanoma = test system: UACC-257 melanoma
UO-31 renal = test system: UO-31 renal
CAKI-1 renal = test system: CAKI-1 renal
786-0 renal = test system: 786-0 renal
HCT-116 colon = test system: HCT-116 colon
SK-MEL-28 melanoma = test system: SK-MEL-28 melanoma
SNB-75 CNS = test system: SNB-75 CNS
SW-620 colon = test system: SW-620 colon
MOLT-4 leukemia = test system: MOLT-4 leukemia
MALME-3M melanoma = test system: MALME-3M melanoma
SF-295 CNS = test system: SF-295 CNS
NCI-H522 lung = test system: NCI-H522 lung
HL-60(TB) leukemia = test system: HL-60(TB) leukemia

SMILES: O=C(/C=C/c1ccccc1O)C(c1ccccc1)c1ccccc1
- TGI (NCI-H226 lung): > 100 µM
- TGI (SK-MEL-2 melanoma): > 100 µM
- TGI (HT29 colon): > 100 µM
- TGI (KM12 colon): > 100 µM
- TGI (SN12C renal): > 100 µM
- TGI (SK-MEL-5 melanoma): > 100 µM
- TGI (XF 498 CNS): > 100 µM
- TGI (NCI-H23 lung): > 100 µM
- TGI (U251 CNS): > 100 µM
- TGI (OVCAR-8 ovarian): > 100 µM
- TGI (RXF 393 renal): > 100 µM
- TGI (HCT-15 colon): > 100 µM
- TGI (SNB-78 CNS): > 100 µM
- TGI (SR leukemia): > 100 µM
- TGI (HOP-92 NSCLC): > 100 µM
- TGI (DMS 273 small cell lung): > 100 µM
- TGI (KM20L2 colon): > 100 µM
- TGI (M14 melanoma): > 100 µM
- TGI (RXF-631 renal): > 100 µM
- TGI (HOP-18 NSCLC): > 100 µM
- TGI (SF-268 CNS): > 100 µM
- TGI (SF-539 CNS): > 100 µM
- TGI (A498 renal): > 100 µM
- TGI (K-562 leukemia): > 100 µM
- TGI (HCC-2998 colon): > 100 µM
- TGI (LOX IMVI melanoma): 62.3 µM
- TGI (CCRF-CEM leukemia): > 100 µM
- TGI (OVCAR-3 ovarian): > 100 µM
- TGI (A549 NSCLC): > 100 µM
- TGI (ACHN renal): > 100 µM
- TGI (COLO 205 colon): > 100 µM
- TGI (OVCAR-4 ovarian): > 100 µM
- TGI (LXFL 529 NSCLC): > 100 µM
- TGI (TK-10 renal): > 100 µM
- TGI (SK-OV-3 ovarian): > 100 µM
- TGI (EKVX NSCLC): > 100 µM
- TGI (HOP-62 NSCLC): > 100 µM
- TGI (UACC-62 melanoma): > 100 µM
- TGI (M19-MEL melanoma): > 100 µM
- TGI (DLD-1 colon): > 100 µM
- TGI (IGROV1 ovarian): > 100 µM
- TGI (RPMI-8226 leukemia): > 100 µM
- TGI (NCI-H460 lung): > 100 µM
- TGI (SNB-19 CNS): > 100 µM
- TGI (DMS 114 small cell lung): > 100 µM
- TGI (OVCAR-5 ovarian): > 100 µM
- TGI (UACC-257 melanoma): > 100 µM
- TGI (UO-31 renal): > 100 µM
- TGI (CAKI-1 renal): > 100 µM
- TGI (786-0 renal): > 100 µM
- TGI (HCT-116 colon): > 100 µM
- TGI (SK-MEL-28 melanoma): > 100 µM
- TGI (SNB-75 CNS): 75.1 µM
- TGI (SW-620 colon): 27.6 µM
- TGI (MOLT-4 leukemia): > 100 µM
- TGI (MALME-3M melanoma): > 100 µM
- TGI (SF-295 CNS): > 100 µM
- TGI (NCI-H522 lung): > 100 µM

SMILES: C[Si](C)(C)CC(N)=O
- TGI (NCI-H226 lung): > 100 µM
- TGI (SK-MEL-2 melanoma): > 100 µM
- TGI (HT29 colon): > 100 µM
- TGI (KM12 colon): > 100 µM
- TGI (SN12C renal): > 100 µM
- TGI (SK-MEL-5 melanoma): > 100 µM
- TGI (XF 498 CNS): > 100 µM
- TGI (U251 CNS): > 100 µM
- TGI (OVCAR-8 ovarian): > 100 µM
- TGI (RXF 393 renal): > 100 µM
- TGI (HCT-15 colon): > 100 µM
- TGI (HL-60(TB) leukemia): > 100 µM
- TGI (SNB-78 CNS): > 100 µM
- TGI (HOP-92 NSCLC): > 100 µM
- TGI (DMS 273 small cell lung): > 100 µM
- TGI (KM20L2 colon): > 100 µM
- TGI (M14 melanoma): > 100 µM
- TGI (RXF-631 renal): > 100 µM
- TGI (HOP-18 NSCLC): > 100 µM
- TGI (K-562 leukemia): > 100 µM
- TGI (HCC-2998 colon): > 100 µM
- TGI (LOX IMVI melanoma): > 100 µM
- TGI (CCRF-CEM leukemia): > 100 µM
- TGI (OVCAR-3 ovarian): > 100 µM
- TGI (A549 NSCLC): > 100 µM
- TGI (ACHN renal): > 100 µM
- TGI (COLO 205 colon): > 100 µM
- TGI (OVCAR-4 ovarian): > 100 µM
- TGI (LXFL 529 NSCLC): > 100 µM
- TGI (TK-10 renal): > 100 µM
- TGI (SK-OV-3 ovarian): > 100 µM
- TGI (EKVX NSCLC): > 100 µM
- TGI (HOP-62 NSCLC): > 100 µM
- TGI (UACC-62 melanoma): > 100 µM
- TGI (M19-MEL melanoma): > 100 µM
- TGI (DLD-1 colon): > 100 µM
- TGI (IGROV1 ovarian): > 100 µM
- TGI (RPMI-8226 leukemia): > 100 µM
- TGI (NCI-H460 lung): > 100 µM
- TGI (SNB-19 CNS): > 100 µM
- TGI (DMS 114 small cell lung): > 100 µM
- TGI (OVCAR-5 ovarian): > 100 µM
- TGI (UACC-257 melanoma): > 100 µM
- TGI (UO-31 renal): > 100 µM
- TGI (CAKI-1 renal): > 100 µM
- TGI (786-0 renal): > 100 µM
- TGI (HCT-116 colon): > 100 µM
- TGI (SK-MEL-28 melanoma): > 100 µM
- TGI (SNB-75 CNS): > 100 µM
- TGI (SW-620 colon): > 100 µM
- TGI (MOLT-4 leukemia): > 100 µM
- TGI (MALME-3M melanoma): > 100 µM
- TGI (SF-295 CNS): > 100 µM
